What was measured:
chlorophyll a [1] = assay: DNA1-19-1 first pond efficacy study (limnocorrals): chlorophyll a; type: in vivo; details: 2 μM, within 24 hours
2-methylisoborneol [2] = assay: DNA1-19-1 first pond efficacy study (limnocorrals): MIB levels; type: in vivo; details: 2 μM
O. perornata = assay: DNA1-19-1 second and third pond efficacy studies: O. perornata filaments; type: in vivo, Oscillatoria perornata; details: second and third efficacy study; 1, 0.3, and 0.1 μM
Protocol: (§1) The method described by Schrader et al. (2000) was used to determine the potential for using the anthraquinone derivatives as selective algicides in catfish aquaculture ponds. All catfish ponds used in efficacy tests were maintained using commercial pond management practices and were located at the Thad Cochran Pond Facility, Mississippi State University, Stoneville, Miss. Anthraquinone analogs were dissolved in deionized water before application to water within the limnocorrals.
(§2) Limnocorrals in which test compound was applied to the enclosed water were randomly selected, and control (no test compound applied) limnocorrals were included in each efficacy study. For each sampling, two water samples (250 mL) were obtained from within each limnocorral (approximately 6-8 cm below the water surface and from opposite sides of each limnocorral) and mixed together in a 500 mL sample bottle to provide a representative sample of the water contained within the limnocorral.
(§3) In the second study with DNA1-19-1, twelve limnocorrals that were the same size as those used in the first study were placed in another 4-ha earthen catfish pond. […] The sampling regime and procedures used in the first study were followed in a similar manner, except that water samples were obtained before DNA1-19-1 application, 16 hours after application, and at days 2, 4, and 7. […]

2-methylisoborneol [3] = assay: DNA1-19-1 second and third pond efficacy studies: MIB levels; type: in vivo; details: second and third efficacy study; 1, 0.3, and 0.1 μM
Protocol: as §1, §2, §3

green algae [4] = assay: DNA2-59-1 second pond efficacy study: green algae abundance; type: in vivo; details: 0.3 μM
Protocol: as §1, §2
In the second efficacy test with DNA2-59-1, six limnocorrals (1.53 m in diameter and 1.53 m high) were placed in a 0.1-ha earthen pond containing a heavy bloom of O. perornata. The same delay in mixing the water within the limnocorrals used in the first efficacy study was utilized. Water within three randomly selected limnocorrals received an application rate of 0.3 μM DNA2-59-1, and the other three limnocorrals were controls. […]

[5] = DNA2-59-1 second efficacy study: dissipation rate and half-life in pond water (HPLC); type: physicochemical; details: for DNA2-59-1 Levels in Pond Water: second study, 0.3 μM applied
Protocol: In the second efficacy test with DNA2-59-1, six limnocorrals (1.53 m in diameter and 1.53 m high) were placed in a 0.1-ha earthen pond containing a heavy bloom of O. perornata. The same delay in mixing the water within the limnocorrals used in the first efficacy study was utilized. Water within three randomly selected limnocorrals received an application rate of 0.3 μM DNA2-59-1, and the other three limnocorrals were controls. Water samples were collected before application of DNA2-59-1, 20 minutes after application, and at days 1, 2, 3, and 7. The same tests and methods used in the first efficacy testing of DNA2-59-1 were used.
(§4) Approximately 15 mL each of water samples from DNA2-59-1 efficacy testing that were designated for HPLC analysis were placed in scintillation vials and held in a freezer. Water samples were later melted at room temperature, and 5 mL of each sample was then filtered through a nylon membrane filter (13 mm diameter and 0.45 μm; Whatman International, Maidstone, England) using a 5 mL syringe (Hamilton Company, Reno, Nev.) and a 13 mm syringe filter holder (Fisher Scientific Company, Pittsburgh, Pa.). Filtrate (1 mL) was placed in 2 mL vials and capped using teflon/rubber septum caps (National Scientific Company, Jeddah, Saudia Arabia). The filter paper was removed and placed in a scintillation vial to which 2 mL of HPLC grade methanol (Fisher Scientific, Fair Lawn, N.J.) was added and then sonicated for 5 minutes. The methanol solution was then filtered using a nylon membrane acrodisc (25 mm and 0.45 μm; Pall Life Sciences, Ann Arbor, Mich.), and the methanol filtrate was placed in separate 2 mL vials.
(§5) Filtrate samples were analyzed using a Waters 2690 Alliance HPLC containing a 996 PDA detector and a XTerra RP 18 column (150 mm×4.6 mm, 5 μm particle size; Waters Corporation, Milford, Mass.). The mobile phase consisted of 25 mM sodium dihydrogenphosphate in 0.1% phosphoric acid (A) and acetonitrile (B). The gradient was from 80A/20B in 15 minutes to 40A/60B. After each run, a 5 minute wash with methanol was performed, followed by equilibrating the column for 10 minutes with 80A/20B. The temperature was set at 40° C., the flow rate was 1 mL/minute, the detection wavelength 256 nm, and the sample injection volume was 10 μL. All solvents used were HPLC grade (Fisher Scientific, Fair Lawn, N.J.).
(§6) Means and standard deviations of data were determined and graphed. The graphs were used to help determine the half-life of DNA2-59-1 in the pond water. Because of the short duration of the first efficacy study, the half-life of DNA2-59-1 in the pond water could not be determined.

chlorophyll a [6] = assay: DNA2-59-1 third pond efficacy study: chlorophyll a; type: in vivo; details: 0.3 μM, 24 hours after application
Protocol: as §1, §2
(§7) For the third efficacy test with DNA2-59-1, twelve limnocorrals (2.44 m in diameter and 1.53 m high) were placed in a 4-ha earthen pond containing a bloom of O. perornata. […]

Oscillatoria perornata = assay: DNA2-59-1 third pond efficacy study: O. perornata abundance; type: in vivo; details: 0.3 μM, within 24 hours after application
Protocol: as §1, §2, §7

Oscillatoria geminata = assay: DNA2-59-1 third pond efficacy study: Oscillatoria geminata abundance; type: in vivo; details: 0.3 μM, from two days through four days after application
Protocol: as §1, §2, §7

green algae [7] = assay: DNA2-59-1 third pond efficacy study: green algae abundance; type: in vivo; details: 0.3 μM, from three days after application
Protocol: as §1, §2, §7

[8] = DNA2-59-1 third efficacy study: dissipation rate and half-life in pond water (HPLC); type: physicochemical; details: for DNA2-59-1 Levels in Pond Water: third study, 0.3 μM applied
Protocol: For the third efficacy test with DNA2-59-1, twelve limnocorrals (2.44 m in diameter and 1.53 m high) were placed in a 4-ha earthen pond containing a bloom of O. perornata. The same procedures, application rate (0.3 μM), and methods used in the second efficacy test of DNA2-59-1 were used except six limnocorrals were randomly selected to receive an application rate of 0.3 μM DNA2-59-1 while the other six limnocorrals were controls. Water samples were collected before application of DNA2-59-1, 20 minutes after application, and at days 1, 2, 3, 4, and 7. The same tests and methods used in the first efficacy testing of DNA2-59-1 were used.
as §4, §5, §6

CCN(CC)CCCC(C)NCc1ccc2c(c1)C(=O)c1ccccc1C2=O.O=P(O)(O)O.O=P(O)(O)O (centres unmarked) [DNA1-19-1, 2-[methylamino-N-(1′-methyl-4′-N,N-diethylaminobutyl)]-9,10-anthraquinone diphosphate]
Chlorophyll a levels (result in words) (chlorophyll a [1]): decreased significantly | Levels of MIB after reduction (2-methylisoborneol [2]): ~970 ng/mL | time MIB levels remained much lower than in the controls (2-methylisoborneol [2]): 8 days | Levels of MIB before reduction (2-methylisoborneol [2]; ng/mL (ppb)): 15,250 ng/mL | numbers of O. perornata filaments compared to controls (result in words) (O. perornata): lack of reduction | 2-methylisoborneol levels compared to controls (result in words) (2-methylisoborneol [3]): lack of reduction

CC(C)NCc1ccc2c(c1)C(=O)c1ccccc1C2=O [DNA2-59-1, 2-[methylamino-N-(1′-methylethyl)]-9,10-anthraquinone monophosphate]
Green algae (result in words) (green algae [4]): not significantly affected | half-life at 0.3 μM ([5]; pond water in limnocorrals (earthen catfish pond), second efficacy study): 19 h | DNA2-59-1 Levels in Pond Water ([5]; 0 hours): 94.8 ± 11.5 µg/L | DNA2-59-1 Levels in Pond Water ([5]; 24 hours): 36.1 ± 4.5 µg/L | DNA2-59-1 Levels in Pond Water ([5]; 48 hours): 16.3 ± 0.4 µg/L | DNA2-59-1 Levels in Pond Water ([5]; 72 hours): 7.6 ± 0.7 µg/L | DNA2-59-1 Levels in Pond Water ([5]; 168 hours): 0 µg/L | Chlorophyll a levels (result in words) (chlorophyll a [6]): significantly reduced | Numbers of O. perornata (result in words) (Oscillatoria perornata): significantly reduced | abundance of Oscillatoria geminate vs controls (result in words) (Oscillatoria geminata): significantly lower than controls | Numbers of green algae vs control limnocorrals (result in words) (green algae [7]): significantly higher | half-life at 0.3 μM ([8]; pond water in limnocorrals (earthen catfish pond), third efficacy study): 19 h | DNA2-59-1 Levels in Pond Water ([8]; 0 hours): 90.6 ± 7.9 µg/L | DNA2-59-1 Levels in Pond Water ([8]; 24 hours): 31.5 ± 4.4 µg/L | DNA2-59-1 Levels in Pond Water ([8]; 48 hours): 9.2 ± 3.2 µg/L | DNA2-59-1 Levels in Pond Water ([8]; 72 hours): 2.2 ± 0.5 µg/L | DNA2-59-1 Levels in Pond Water ([8]; 96 hours): 0 µg/L

Reference: patent publication US6949250B2, “Selective algaecides for control of cyanochloronta” (The United States of America as represented by the …, priority 2002, dated 2005)
